Laboratory results: ChEMBL document CHEMBL5096161, “Medulloblastoma drugs in development: Current leads, trials and drawbacks” (Eur J Med Chem, 2021)
≈ marks a conversion by molar mass, not a printed value.

Assays:
[1] = Cytotoxicity against human D425 Med cells expressing Glt1-tTA:TRE-MYCN/Luc (GTML) assessed as reduction in cell viability incubated for 72 hrs by Resazurin assay; type: functional, cell-based
[2] = tested on: Daoy; assay: Antiproliferative activity against human Daoy cells assessed as reduction in cell viability incubated for 48 hrs by MTT assay; type: functional, cell-based
[3] = tested on: D283 Med; assay: Antiproliferative activity against human D283 Med cells assessed as reduction in cell viability incubated for 48 hrs by MTT assay; type: functional, cell-based
[4] = biological target: Protein smoothened (Homo sapiens, UniProt Q99835, D473H); assay: Antagonist activity at resistant Smo D473H mutant (unknown origin) expressed in mouse C3H 10T1/2 cells cotransfected with Gli reporter gene assessed as Gli luciferase activity incubated for 24 hrs by dual luciferase assay; type: functional, cell-based
[5] = Ratio of AUC (0 to infinity) in brain to plasma of C57BL mouse at 20 mg/kg, iv by HPLC/MS/MS method; type: ADME, organism-based; conditions: brain and plasma, read-out: Ratio AUC
[6] = tested on: Daoy; assay: Antiproliferative activity against human Daoy cells assessed as inhibition of cell proliferation measured after 4 days by WST-1 assay; type: functional, cell-based; conditions: 96 h
[7] = Antiproliferative activity against human D556 Med cells assessed as inhibition of cell proliferation measured after 4 days by WST-1 assay; type: functional, cell-based; conditions: 96 h
[8] = tested on: Daoy; assay: Antiproliferative activity against human Daoy cells assessed as reduction in cell viability by MTT assay; type: functional, cell-based
[9] = Prodrug conversion in ICR mouse brain assessed as Cmax of PF403 metabolite at 10 mg/kg, po and measured after 5 mins by LC-MS/MS analysis; type: ADME, organism-based; design: dose 10 mg/kg, time 5 min, route po; conditions: in vivo
[10] = tested on: ONS-76; assay: Antitumor activity against human ONS-76 cells xenografted in athymic nude mouse assessed as inhibition of tumor growth at 100 mg/kg, po QD for 9 days; type: functional; conditions: ONS-76, 216 h, time 9 day, read-out: TGI
[11] = tested on: D283 Med; assay: Antitumor activity against human D283 Med cells assessed as inhibition of cell proliferation incubated for 72 hrs by CellTiter-Glo luminescent assay; type: functional, cell-based
[12] = tested on: Daoy; assay: Antitumor activity against human Daoy cells assessed as inhibition of cell proliferation incubated for 72 hrs by CellTiter-Glo luminescent assay; type: functional, cell-based
[13] = Cytotoxicity against human D384 Med cells assessed as reduction in cell viability incubated for 48 hrs by Cell TiterGlo luminescent assay; type: functional, cell-based; conditions: pooled result: one value given for 10 cell lines, strains, targets or settings
[14] = Antitumor activity against human Med-211 FH cells xenografted in athymic nude mouse assessed as tumor regression at 75 mg/kg, po QD for 28 days; type: functional; conditions: Med-211FH cell, 672 h, time 28 day, read-out: TGI
[15] = Antitumor activity against human Med-1712FH cells xenografted in athymic nude mouse assessed as tumor regression at 75 mg/kg, po QD for 28 days; type: functional; conditions: Med-1712FH cell, 672 h, time 28 day, read-out: TGI
[16] = tested on: Daoy; assay: Antiproliferative activity against human Daoy cells assessed as inhibition of cell proliferation incubated for 72 hrs by MTS assay; type: functional, cell-based
[17] = Antiproliferative activity against human UW228 cells assessed as inhibition of cell proliferation incubated for 72 hrs by MTS assay; type: functional, cell-based; conditions: UW228, 72 h
[18] = Antiproliferative activity against human Medulloblastoma cells expressing wild type SMO assessed as reduction in cell viability; type: functional, cell-based
[19] = Antiproliferative activity against human Med1 cells assessed as reduction in cell viability; type: functional, cell-based
[20] = biological target: Protein smoothened (Homo sapiens, UniProt Q99835); assay: Inhibition of endogenous human Smo overexpressed in mouse C3H 10T1/2 cells cotransfected with Gli reporter gene assessed as Gli luciferase activity by dual luciferase assay; type: functional, cell-based
[21] = Half life in CD-1 mouse plasma at 10 mg/kg, po administered as single dose; type: ADME, organism-based
[22] = biological target: Protein smoothened (Mus musculus, UniProt P56726); assay: Inhibition of endogenous mouse Smo overexpressed in mouse C3H 10T1/2 cells cotransfected with Gli reporter gene assessed as Gli luciferase activity by dual luciferase assay; type: functional, cell-based
[23] = biological target: Casein kinase I isoform alpha (Homo sapiens, UniProt P48729); assay: Binding affinity to CK1alpha (unknown origin) using casein as substrate by fluorescence based analysis
[24] = Inhibition of Wnt/beta-catenin transactivation signalling in Wnt3a stimulated human HEK 293 STF cells harbouring TCF/LEF1 luciferase reporter gene assessed as reduction in luciferase activity by TOPFlash luciferase reporter assay; type: cell-based
[25] = Inhibition of hedgehog signalling in mouse Shh Light II cells assessed as luciferase activity; type: cell-based

Chain of Protein smoothened (Mus musculus, UniProt P56726) (P56726 whole entry, canonical isoform): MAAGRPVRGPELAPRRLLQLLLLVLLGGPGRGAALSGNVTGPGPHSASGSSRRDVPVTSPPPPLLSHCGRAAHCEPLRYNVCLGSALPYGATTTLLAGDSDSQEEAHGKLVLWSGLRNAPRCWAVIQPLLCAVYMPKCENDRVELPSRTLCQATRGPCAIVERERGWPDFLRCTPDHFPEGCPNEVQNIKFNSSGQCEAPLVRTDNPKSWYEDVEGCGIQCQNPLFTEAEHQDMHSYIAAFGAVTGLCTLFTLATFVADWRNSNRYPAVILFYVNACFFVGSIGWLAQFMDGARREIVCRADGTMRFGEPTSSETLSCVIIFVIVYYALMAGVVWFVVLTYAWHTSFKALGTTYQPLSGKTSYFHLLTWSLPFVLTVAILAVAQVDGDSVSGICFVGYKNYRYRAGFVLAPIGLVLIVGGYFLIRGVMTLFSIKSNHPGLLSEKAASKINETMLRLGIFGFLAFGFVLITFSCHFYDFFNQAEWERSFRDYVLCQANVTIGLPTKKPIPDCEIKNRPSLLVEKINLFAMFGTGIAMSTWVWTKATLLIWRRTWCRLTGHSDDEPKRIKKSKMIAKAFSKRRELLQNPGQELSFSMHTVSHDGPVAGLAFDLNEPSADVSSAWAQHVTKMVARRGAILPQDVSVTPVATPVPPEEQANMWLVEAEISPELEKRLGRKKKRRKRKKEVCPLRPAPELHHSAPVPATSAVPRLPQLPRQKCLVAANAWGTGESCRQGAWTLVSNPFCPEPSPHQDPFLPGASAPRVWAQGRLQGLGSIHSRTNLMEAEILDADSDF
Chain of Protein smoothened (Homo sapiens, UniProt Q99835, D473H) (Q99835 28-787 D473H limits assumed): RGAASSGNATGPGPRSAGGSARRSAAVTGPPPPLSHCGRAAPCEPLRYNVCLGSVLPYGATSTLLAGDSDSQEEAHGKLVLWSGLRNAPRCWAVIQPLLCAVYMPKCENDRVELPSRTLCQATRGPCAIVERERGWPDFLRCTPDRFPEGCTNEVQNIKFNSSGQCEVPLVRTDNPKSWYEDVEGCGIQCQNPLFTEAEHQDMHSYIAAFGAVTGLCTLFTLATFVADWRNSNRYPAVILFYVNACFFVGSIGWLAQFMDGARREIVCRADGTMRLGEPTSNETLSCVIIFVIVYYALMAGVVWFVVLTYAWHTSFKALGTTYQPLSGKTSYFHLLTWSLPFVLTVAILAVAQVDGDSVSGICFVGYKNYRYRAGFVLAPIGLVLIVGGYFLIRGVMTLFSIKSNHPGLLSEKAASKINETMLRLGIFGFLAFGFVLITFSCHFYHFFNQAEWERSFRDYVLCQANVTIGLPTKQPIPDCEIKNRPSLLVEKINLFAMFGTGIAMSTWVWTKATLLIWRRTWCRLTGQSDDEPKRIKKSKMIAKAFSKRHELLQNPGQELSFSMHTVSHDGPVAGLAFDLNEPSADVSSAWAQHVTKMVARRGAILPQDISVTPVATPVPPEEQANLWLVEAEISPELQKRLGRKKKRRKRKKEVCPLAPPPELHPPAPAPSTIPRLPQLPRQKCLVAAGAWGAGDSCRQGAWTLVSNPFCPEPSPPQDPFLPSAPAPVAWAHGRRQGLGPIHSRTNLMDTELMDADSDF
Chain of Protein smoothened (Homo sapiens, UniProt Q99835) (Q99835 whole entry): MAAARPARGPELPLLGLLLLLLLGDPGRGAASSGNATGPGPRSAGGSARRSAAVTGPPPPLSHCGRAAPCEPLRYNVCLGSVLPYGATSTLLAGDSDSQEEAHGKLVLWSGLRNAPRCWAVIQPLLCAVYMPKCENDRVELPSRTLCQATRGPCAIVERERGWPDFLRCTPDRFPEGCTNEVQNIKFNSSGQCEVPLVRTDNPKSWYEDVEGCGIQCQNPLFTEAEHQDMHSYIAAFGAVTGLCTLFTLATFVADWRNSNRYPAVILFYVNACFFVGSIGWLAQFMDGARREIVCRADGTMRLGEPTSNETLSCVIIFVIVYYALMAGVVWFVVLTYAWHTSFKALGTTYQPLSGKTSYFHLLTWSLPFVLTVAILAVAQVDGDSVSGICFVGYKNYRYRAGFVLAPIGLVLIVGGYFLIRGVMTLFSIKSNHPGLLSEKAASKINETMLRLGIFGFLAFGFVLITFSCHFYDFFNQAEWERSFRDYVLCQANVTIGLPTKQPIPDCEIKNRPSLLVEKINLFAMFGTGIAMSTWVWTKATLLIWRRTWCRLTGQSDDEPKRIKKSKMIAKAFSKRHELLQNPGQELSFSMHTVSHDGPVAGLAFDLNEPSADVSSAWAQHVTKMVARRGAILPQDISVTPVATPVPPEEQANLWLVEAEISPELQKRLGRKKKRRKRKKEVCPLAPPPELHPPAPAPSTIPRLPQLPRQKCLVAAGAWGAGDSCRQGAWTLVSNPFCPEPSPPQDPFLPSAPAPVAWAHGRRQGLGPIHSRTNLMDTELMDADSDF
Chain of Casein kinase I isoform alpha (P48729 whole entry, canonical isoform): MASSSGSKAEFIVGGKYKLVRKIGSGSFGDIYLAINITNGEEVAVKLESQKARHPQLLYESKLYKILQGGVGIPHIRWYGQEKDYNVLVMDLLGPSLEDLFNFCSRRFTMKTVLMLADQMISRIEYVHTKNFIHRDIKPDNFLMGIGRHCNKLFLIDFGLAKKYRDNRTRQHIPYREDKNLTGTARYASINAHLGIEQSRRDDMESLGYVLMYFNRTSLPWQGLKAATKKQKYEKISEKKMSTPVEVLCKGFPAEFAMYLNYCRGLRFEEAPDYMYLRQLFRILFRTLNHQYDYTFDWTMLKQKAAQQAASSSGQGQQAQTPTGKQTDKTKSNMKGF

**Q.** For `CNC(=O)c1nn(C)c2c1C(C)(C)Cc1cnc(Nc3ccc(N4CCN(C)CC4)cc3)nc1-2` [MILCICLIB], which IC50 [1] is on record?
**A.** Its IC50 is 940 nM.

**Q.** With `O=C(/C=C/c1ccc(CN(CCO)CCc2c[nH]c3ccccc23)cc1)NO` [DACINOSTAT] as the compound, how does the IC50 [2] read?
**A.** The IC50 was < 100 nM.

**Q.** What about the IC50 [3] of the same compound?
**A.** Its IC50 is < 200 nM.

**Q.** Which results are given for `Cc1c(Cc2ccccc2)nnc(N2CCN(c3cnc(C(C)(C)O)cn3)[C@H](C)C2)c1C` [LEQ506]?
**A.** IC50 [4]: 96 nM; Kp [5]: 0.69

**Q.** For `O=[As][As+](=O)[O-]` (configuration not stated) [ARSENIC TRIOXIDE], which IC50 [6] is on record?
**A.** The IC50 was 400 nM.

**Q.** What about the IC50 [7] of the same compound?
**A.** Its IC50 is 400 nM.

**Q.** Which IC50 [8] does the source give for `COc1cc2c3c(c4ccc(O)cc4c2cc1OC)C[C@@H]1CCCN1C3` here?
**A.** The IC50 was 0.013 nM.

**Q.** For `COc1cc2c3c(c4ccc(OC(=O)C(C)(C)C)cc4c2cc1OC)C[C@@H]1CCCN1C3`, which Cmax [9] is on record?
**A.** Its Cmax is 37.76 ng/mL.

**Q.** Which inhibition in vivo at 100 mg/kg [10] does the source give for `COc1cc2c(Oc3ccc(NC(=O)C4(C(=O)Nc5ccc(F)cc5)CC4)cc3F)ccnc2cc1OCCCN1CCOCC1` [FORETINIB] here?
**A.** Its inhibition in vivo at 100 mg/kg is 50%.

**Q.** Which IC50 [11] does the source give for `Cc1c(Cl)cccc1Nc1ccccc1C(=O)O` [TOLFENAMIC ACID] here?
**A.** The IC50 was 20.8 µg/mL (≈ 79.5 µM).

**Q.** What about the IC50 [12] of the same compound?
**A.** The IC50 was 21.6 µg/mL (≈ 82.5 µM).

**Q.** With `Nc1cc(C(F)(F)F)c(-c2cc(N3CCOCC3)nc(N3CCOCC3)n2)cn1` [BUPARLISIB] as the compound, how does the IC50 [13] read?
**A.** Its IC50 is 279 nM.

**Q.** What does the source list for `CC(=O)c1c(C)c2cnc(Nc3ccc(N4CCNCC4)cn3)nc2n(C2CCCC2)c1=O` [PALBOCICLIB]?
**A.** inhibition in vivo at 75 mg/kg [14]: 63%; inhibition in vivo at 75 mg/kg [15]: 63%

**Q.** Which results are given for `C=CCn1c(=O)c2cnc(Nc3ccc(N4CCN(C)CC4)cc3)nc2n1-c1cccc(C(C)(C)O)n1` [ADAVOSERTIB]?
**A.** IC50 [16]: 150 nM; IC50 [17]: 232 nM

**Q.** Which IC50 [2] does the source give for `Cn1cc(CNCC2CCN(c3ncc(C(=O)NO)cn3)CC2)c2ccccc21` [QUISINOSTAT] here?
**A.** The IC50 was < 100 nM.

**Q.** And the IC50 [3]?
**A.** Its IC50 is < 200 nM.

**Q.** For `Cc1sc2c(c1C)C(c1ccc(Cl)cc1)=N[C@@H](CC(=O)OC(C)(C)C)c1nnc(C)n1-2`, which IC50 [18] is on record?
**A.** The IC50 was 50 nM.

**Q.** What about the IC50 [19] of the same compound?
**A.** Its IC50 is 50 nM.

**Q.** What does the source list for `C[C@@H]1CN(c2ccc(C(=O)Nc3ccc(Cl)c(NC(=O)c4cccc(Cl)c4)c3)cn2)C[C@H](C)N1`?
**A.** IC50 [20]: 8 nM; half-life [21]: 22 h; IC50 [22]: 27 nM

**Q.** With `Cc1cc(/C=C/c2ccc3cc(N(C)C)ccc3[n+]2C)c(C)n1-c1ccccc1` as the compound, how does the Kd [23] read?
**A.** The Kd was 1 nM.

**Q.** What about the IC50 [24] of the same compound?
**A.** Its IC50 is 10 nM.

**Q.** What about the IC50 [25] of the same compound?
**A.** The IC50 was 10 nM.
